Experimental data from patent US20080306268A1, “Crystalline clopidogrel hydrobromide and processes for preparation thereof” (Teva Pharmaceuticals USA, Inc. for Barbados, priority 2004, published 2008).
Structures can show the parent of a compound that is named as a salt.

Columns and labels:
[1] = opened beaker, room temperature, 4 days
Description: Form I may also be prepared by exposing a hygroscopic crystalline clopidogrel hydrobromide to air, preferably for at least about 24 hours. In a preferred embodiment, the clopidogrel hydrobromide exposed is Form II, discussed below.

[2] = pure crystalline hydrate, purity at least about 99% by HPLC
[3] = test system: platelet aggregation; conditions: 75 mg base equivalent versus 325 mg aspirin; cited from earlier work
[4] = compared with aspirin; cited from earlier work

**Q.** With `COC(=O)[C@H](c1ccccc1Cl)N1CCc2sccc2C1` [Form II, clopidogrel hydrobromide] as the compound, how does the “crystalline form after exposure to air” value [1] read?
**A.** giving clopidogrel hydrobromide form I

**Q.** For `COC(=O)[C@H](c1ccccc1Cl)N1CCc2sccc2C1` [clopidogrel hydrobromide hydrate], which hygroscopicity [2] is on record?
**A.** only minor hygroscopicity

**Q.** For `COC(=O)[C@H](c1ccccc1Cl)N1CCc2sccc2C1` [clopidogrel, methyl (+)-(S)-∝-(o-chlorophenyl)-6,7-dihydrothieno[3,2-c]pyridine-5(4H)-acetate], which “effectiveness in blocking platelet aggregation versus aspirin” value [3] is on record?
**A.** more effective in blocking platelet aggregation than aspirin

**Q.** And the “gastrointestinal bleeding versus aspirin” value [4]?
**A.** much less gastrointestinal bleeding than aspirin
